Legend:
Parameters in all cases: species or system AML cell lines (8); Primary HTS, single concentration about 10 uM, Cell Titer Glo viability; log10 luminescence, per cent inhibition relative to cycloheximide control
Settings in all cases: 72 h, relative to cycloheximide control, log10 luminescence; inhibitor
CHRF288-11 = tested on: CHRF288-11
CMK = tested on: CMK
CMS = tested on: CMS
M07e = tested on: M07e
ML-2 = tested on: ML-2
MOLM-13 = tested on: MOLM-13
MV4-11 = tested on: MV4-11
U937 = tested on: U937

SMILES	CHRF288-11 %inh (CHRF288-11)	CMK %inh (CMK)	CMS %inh (CMS)	M07e %inh (M07e)	ML-2 %inh (ML-2)	MOLM-13 %inh (MOLM-13)	MV4-11 %inh (MV4-11)	U937 %inh (U937)
Fc1ccc(-c2ncn(C3CCNCC3)c2-c2ccnc(Oc3ccccc3)n2)cc1 [SJ000573013-1, JB19236-077B1]	6.56%	-1.927%	-0.5294%	0.9358%	1.79%	-2.821%	0.9088%	2.101%
C[C@@H](Oc1cc(-n2cnc3ccc(OC4CCN(C)CC4)cc32)sc1C(N)=O)c1ccccc1Cl [SJ000573015-1, U20958/186/1]	79.26%	85.68%	56.77%	91.2%	28.2%	100.2%	65.04%	71%
CS(=O)(=O)CCN(CC#N)Cc1ccc(-c2ccc3ncnc(Nc4ccc(OCc5cccc(F)c5)c(Cl)c4)c3c2)o1 [SJ000573016-1, U15872/6/1]	-2.462%	0.1592%	3.038%	3.973%	-0.1489%	0.2014%	-0.4968%	1.155%
COc1cc2ncn(-c3cc(OCc4ccccc4C(F)(F)F)c(C(N)=O)s3)c2cc1OC [SJ000573017-1, U19479/72/1]	5.686%	61.69%	10.85%	75.37%	50.35%	75.9%	11.51%	52.87%
COc1ccc2ncn(-c3cc(O[C@H](C)c4ccccc4Cl)c(C(N)=O)s3)c2c1 [SJ000573018-1, U20814/197/10]	95.84%	106.8%	74.69%	105.8%	40.68%	77.34%	78.2%	80.58%
NC(=O)c1cc(-c2ccc(F)cc2)cc(-c2ccncc2)c1N [SJ000573019-1, R12070/183/1]	0.09024%	2.8%	-0.425%	-3.642%	-4.125%	2.771%	-5.414%	-0.8611%
CS(=O)(=O)CCNCc1coc(-c2ccc3ncnc(Nc4ccc(OCc5ccccc5)cc4)c3c2)c1 [SJ000573020-1, U12271/135/2]	-1.974%	4.823%	-1.503%	-2.581%	1.422%	31.36%	24.68%	2.077%
NC(=O)Cc1ccccc1Oc1nccc(-c2c(-c3ccc(F)cc3)ncn2C2CCNCC2)n1 [SJ000573021-1, JB27143-130B1]	2.665%	-8.193%	1.576%	-2.017%	0.1798%	-3.279%	-0.3846%	-0.5311%
CS(=O)(=O)CCNCc1ccoc1-c1ccc2ncnc(Nc3ccc(OCc4ccccc4)cc3)c2c1 [SJ000573022-1, U12271/142/3]	3.335%	1.228%	-1.789%	4.198%	0.6017%	26.01%	13.73%	-0.4603%
COc1cc2ncn(-c3cc(OCc4ccccc4Cl)c(C(N)=O)s3)c2cc1OC [SJ000573023-1, U22436/143/1]	71.75%	98.04%	71.19%	101%	36.08%	81.3%	72.02%	71.67%
CCS(=O)(=O)c1ccc(OC)c(Nc2ncc(-c3cccc(C(C)=O)c3)o2)c1 [SJ000573024-1, U16419/42/1]	-0.8609%	1.586%	-0.9431%	133.2%	-2.018%	78.46%	66.42%	71.28%
COc1cc2ncn(-c3cc(OCCc4ccccc4)c(C(N)=O)s3)c2cc1OC [SJ000573025-1, U19479/153/8]	0.4642%	4.39%	-1.969%	0.3839%	0.6694%	2.298%	2.077%	0.712%
N#Cc1c(NC(=O)c2cccc3ccccc23)sc2c1CCCC2 [SJ000573026-1, R15619/70/1 | TCS JNK 5A | JNK INHIBITOR IX | | TCS JNK 5A]	42.98%	122.9%	100.8%	97.41%	58.68%	87.75%	80.18%	83.53%
COc1cccc(-n2ncc3c(N/N=C/c4ccc(S(C)(=O)=O)cc4)ncnc32)c1 [SJ000573027-1, U18028/92/1]	-7.861%	-4.499%	0.1842%	-5.045%	-4.304%	-3.446%	1.569%	-1.909%
COc1cccc(Nc2nccc(-c3cnn4ncccc34)n2)c1 [SJ000573028-1, U18020/75/1]	61.5%	112.7%	93.88%	96.77%	57.03%	96.5%	76.07%	74.45%
COC(=O)Nc1nc2ccc(Sc3ccc(NC(=O)Nc4cc(C(F)(F)F)ccc4F)cc3)cc2[nH]1 [SJ000573029-1, T229/195/1]	10.2%	38.89%	-0.01293%	3.372%	2.621%	17.62%	2.362%	5.795%
NC(=O)c1cccc(Nc2nccc(Nc3cccc4[nH]ncc34)n2)c1 [SJ000573030-1, JA205171-001A6]	16.39%	-1.424%	1.464%	5.4%	2.579%	22.42%	23.15%	-0.8011%
Cc1cccc(Nc2ncc(-c3ccccc3)o2)c1 [SJ000573031-1, U21834/25/1]	1.444%	4.152%	1.47%	2.356%	2.781%	78.79%	58.38%	0.1537%
NC(=O)c1sc(-n2cnc3ccccc32)cc1OCc1ccccc1Br [SJ000573032-1, U22538/78/1]	-0.9565%	4.627%	2.746%	3.083%	42.25%	1.858%	0.1879%	1.777%
